Consider two compounds from US4419348A, “Anthracycline glycoside compositions, their use and preparation” (priority 1981, dated 1983).

“Also recorded” adds a separate entry of the source. Where a name gives a salt, the structure may show the parent alone. A value given as a limit tells only on which side of the number the result lay.

The conditions of data set [1]: in vivo; cited from earlier work.
Data set [2] can be described thus: Electron microscopy of cardiac tissue (cardiotoxicity). Type of data set: in vivo, DBA/2 mice. As to conditions: 15 mg/kg i.v.; day three, five and seven; listed as free Adriamycin, hydrochloride. The procedure:
To determine whether the reduced cardiac uptake of Adriamycin in cardiolipin complex encapsulated liposomes prevented cardiotoxicity, electron microscope studies of this organ were performed. DBA/2 mice were injected i.v. with free drug or drug entrapped in cardiolipin complex encapsulated liposomes at a dose of 15 mg/kg. Three mice in each group were sacrificed by cervical dislocation on day three, five and seven and hearts were immediately removed and placed in physiological saline. The apex of the left ventricle with part of the septum was dissected out and minced into one cubic mm blocks and fixed in 2.5% glutaraldehyde buffered with 0.1 M cacodylate, pH 7.2 for two hours at room temperature. The specimens were rinsed in buffer, osmicated in Bennett and Luft's collidin buffered osmium tetroxide, dehydrated in graded ethanols and acetone, and embedded in Epon. For electron microscopy, preliminary 1 μm Epon sections were stained with alkaline toluidine blue and appropriate areas were chosen for ultrathin sectioning, following which random sections were taken on 200 mesh copper grids and stained with uranyl acetate and lead citrate. A JEOL 100 S Electron microscope at an accelerating voltage of 80 KeV was utilized for viewing the sections.

The next data set in a line: in vivo. As to conditions: mouse, iv, 4 mg/kg.
In data set [3] the test system is murine P388 ascitic leukemia. As to the kind of experiment: Antitumor activity against P388 ascitic leukemia, survival. Type of data set: in vivo, DBA/2 mice. As to conditions: 4 mg/kg i.p., 24 hours after 1×10^5 P388 cells i.p. The procedure: To determine whether encapsulation of Adriamycin cardiolipin complex into liposomes reduced the antitumor activity of the drug, the effectiveness of liposomes-encapsulated Adriamycin cardiolipin complex against the murine P388 ascitic leukemia in DBA/2 mice was studied. Mice were injected i.p with 1×10^5 cells of P388 leukemia. Twenty-four hours after tumor implanation, mice were administered intraperitoneally free Adriamycin or cardiolipin complex-encapsulated liposome at a dose of 4 mg/kg. Control mice received 0.9% NaCl or blank liposomes representing the same concentration of lipids as used to encapsulate Adriamycin cardiolipin complex. All injections were made on 2% body weight basis. Mice were weighed on day of injection, doses of drugs were calculated on body weight basis, and the survival time of mice was recorded in days.
Mice weighing 20 to 25 g were given i.p. injections of 10^5 cells and 24 hours later free or cardiolipin complex-encapsulated liposome Adriamycin was administered.

The conditions of data set [4]: pharmacokinetic studies; cited from earlier work.

Protocol for in vivo: The physiologic disposition of free Adriamycin and of liposome encapsulated Adriamycin cardiolipin complex was determined in DBA/2 mice weighing 20-25 gm. Mice were injected with free Adriamycin and Adriamycin-cardiolipin complex encapsulated in liposomes via the tail vein at a dose of 4 mg/kg and at 2% body weight. At sequential time points from 5 minutes to 24 hours after drug administration, mice were bled through orbital sinus in hepanized tubes. Plasma was separated immediately and stored at -20° C. Four mice in each treatment group were killed by cervical dislocation and heart, liver, kidney, spleen, lungs and small intestine were rapidly excised, rinsed in 0.9% NaCl and stored at -20° C. until assayed.
Briefly, plasma was extracted with 5 volumes of 0.3 N HCl-50% ethanol and tissues were homogenized with 20 volumes of the acid alcohol. Plasma and tissue homogenates were centrifuged at 15,000 rpm for 10 minutes and the clear supernatant was assayed fluorometrically in a Perkin Elmer equipment at 470 nm excitation and 585 nm emission. Control tissues obtained from mice treated with blank liposomes were read similarly in the fluorometer to correct for any endogenous fluorescence. Fresh Adriamycin standards were prepared in ) 0.3 N HCl--50% ethanol each day to calculate the concentration of Adriamycin in the tissue samples.

Consider `COc1cccc2c1C(=O)c1c(O)c3c(c(O)c1C2=O)C[C@@](O)(C(C)=O)C[C@@H]3O[C@H]1C[C@H](N)[C@H](O)[C@H](C)O1` [daunorubicin], for which the “cardiotoxicity (in words)” value in data set [1] is “cardiotoxic effects”.

With `COc1cccc2c1C(=O)c1c(O)c3c(c(O)c1C2=O)C[C@@](O)(C(=O)CO)C[C@@H]3O[C@H]1C[C@H](N)[C@H](O)[C@H](C)O1` [Adriamycin, doxorubicin hydrochloride], the “myocardial toxic damage by electron microscopy” value in data set [2] was “loss and fragmentation of myofilaments with concomitant clearing of organelles and swelling of sarcoplasmic areas; also recorded: degenerative changes with vacuolation of the smooth endoplasmic reticulum and loss of myofibrils; also recorded: Progression of damage could be seen with greater intensity on day 7”. Further, the “cumulative dose correlated with cumulative myocardial damage” value in data set [1] is given as over 500 mg/m^2. For the same compound, in the data set “in vivo”, the peak level (Cmax) was 8300 ng/g and the time to peak (Tmax) was 30 min. In addition, in data set [3], the “T/C (Treated vs. Control), survival” value was 132%. The “uptake by heart muscle (in words)” value in data set [4] was “taken up avidly and preferentially by heart muscle”.

What is called Cmax is the peak of the concentration-time curve. The term Tmax denotes the time at which the peak concentration occurs.
